Values quoted from earlier work, collected in US6458376B1, “Nonaqueous fluorinated drug delivery suspensions” (Allergan, Inc., priority 1990, dated 2002).

Tests used:
[1] = for Boiling point: ambient pressure
[2] = systemically administered

Row | Structure (SMILES) | Density @ 25° C. [1] [gms/mL] | Kin. viscosity @ 25° C. [1] [cst] | Specific heat @ 25° C. [1] [g-cal/gm] | Surface tension @ 25° C. [1] [dynes/cm] | Boiling point [1] [°C] | elimination half life [2] | elimination half-life (in words) [2]
1 | FC1(F)C(F)(F)C(F)(F)C2(F)C(F)(F)C(F)(F)C(F)(F)C(F)(F)C2(F)C1(F)F (centres unmarked) [PFD, Perfluoro(decahydronaphthalene)] | 1.929 | 2.9 | 0.22 | 19.3 | 142 | about 7 days | quite rapid
2 | FC1(F)C(F)(F)C(F)(F)C2(F)C(F)(C1(F)F)C(F)(F)C(F)(F)C1(F)C(F)(F)C(F)(F)C(F)(F)C(F)(F)C12F (centres unmarked) [PPP, perfluoroperhydrophenanthrene] | 2.016 | 8.0 | 0.27 | 21.6 | 215 |  | quite rapid
3 | O [Water, reference compound] | 1.000 | 1.00 | 1.00 | 72.0 |  |  | 
